Measured values from ChEMBL document CHEMBL4828737, “Glutathione-responsive prodrug conjugates for image-guided combination in cancer therapy” (Eur J Med Chem, 2021).
The source made the active and inactive calls. No cut-off for these calls is given here.

Experiments:
[1] = Prodrug activation in human HeLa cells assessed as increase in fluorescence at 10 uM within 6 hrs in the presence of N-ethylmalemide by confocal laser scanning microscopic method; assay type: cell-based
HeLa [2] = test: Induction of apoptosis in human HeLa cells assessed as necrotic cells at 30 uM incubated for 24 hrs by Annexin V/PI double staining base flow cytometry analysis (reference value: 2.65 %); assay type: functional
HeLa [3] = test: Induction of apoptosis in human HeLa cells assessed as early apoptotic cells at 30 uM incubated for 24 hrs by Annexin V/PI double staining base flow cytometry analysis (reference value: 2.59 %); assay type: functional
HeLa [4] = test: Induction of apoptosis in human HeLa cells assessed as viable cells at 30 uM incubated for 24 hrs by Annexin V/PI double staining base flow cytometry analysis (reference value: 82.3 %); assay type: functional; details: read-out: Activity
HeLa [5] = test: Induction of apoptosis in human HeLa cells assessed as early apoptotic cells at 30 uM incubated for 48 hrs by Annexin V/PI double staining base flow cytometry analysis (reference value: 2.59 %); assay type: functional
MCF7 [6] = test: Antiproliferative activity against human MCF7 cells assessed as cell growth inhibition at 0.1 to 100 micromol/L measured after 48 hrs by MTT assay relative to control; assay type: functional, cell-based; details: dose 0.1-100 µmol/L
[7] = Drug uptake in tumor of BALB/c nude mouse xenografted with human HeLa cells 10 uM, iv measured after 6 to 36 hrs by fluorescence imaging based IVIS optical imaging analysis; assay type: ADME, organism-based, Neoplasm; details: in vivo, time 6-36 hrs
[8] = GSH-mediated prodrug activation assessed as increase in fluorescence intensity at 10 uM measured up to 2 hrs by real time fluorescence spectra
[9] = Toxicity in human HeLa cells xenografted in BALB/c nude assessed as histological changes in heart at 5 mg/kg, iv administered every 3 days for 15 days by H and E staining based microscopic analysis; assay type: organism-based; details: in vivo, 360 h, time 15 day
[10] = Toxicity in human HeLa cells xenografted in BALB/c nude mouse assessed as histological changes in liver at 5 mg/kg, iv administered every 3 days for 15 days by H and E staining based microscopic analysis; assay type: organism-based; details: in vivo, 360 h, time 15 day
HEK-293T [11] = test: Antiproliferative activity against human HEK293T cells assessed as cell growth inhibition at 0.1 to 100 micromol/L measured after 48 hrs by MTT assay relative to control; assay type: cell-based; details: dose 0.1-100 µmol/L
HepG2 [12] = test: Antiproliferative activity against human HepG2 cells assessed as cell growth inhibition at 0.1 to 100 micromol/L measured after 48 hrs by MTT assay relative to control; assay type: functional, cell-based; details: dose 0.1-100 µmol/L
[13] = GSH-mediated prodrug activation assessed as increase in fluorescence intensity at 10 uM by UV-vis absorption spectroscopy
HeLa [14] = test: Antiproliferative activity against human HeLa cells assessed as cell growth inhibition at 0.1 to 100 micromol/L measured after 48 hrs by MTT assay relative to control; assay type: functional, cell-based; details: dose 0.1-100 µmol/L
[15] = GSH-mediated prodrug activation assessed as increase in fluorescence intensity at 10 uM measured at pH 5 by real time fluorescence spectra; details: pH 5, 10 µM
HeLa [16] = test: Antitumor activity against human HeLa cells xenografted in BALB/c nude mouse assessed as reduction in tumor volume at 5 mg/kg, iv administered every 3 days for 15 days; assay type: functional, organism-based; details: time 15.0 day
[17] = Toxicity in human HeLa cells xenografted in BALB/c nude mouse assessed as change in body weight at 5 mg/kg, iv administered every 3 days for 15 days; assay type: organism-based; details: in vivo, 360 h, time 15 day
HEK-293T [18] = test: Antiproliferative activity against human HEK293T cells assessed as cell growth inhibition at 0.1 to 100 micromol/L measured after 24 hrs by MTT assay relative to control; assay type: functional, cell-based; details: dose 0.1-100 µmol/L
[19] = GSH-mediated prodrug activation assessed as increase in fluorescence intensity at 10 uM measured at 525 nm emission in presence of 0 to 500 uM of GSH by UV-vis absorption spectroscopy
[20] = Toxicity in BALB/c nude mouse xenografted with human HeLa cells assessed as histological changes in spleen at 5 mg/kg, iv administered every 3 days for 15 days by H and E staining based microscopic analysis; assay type: organism-based; details: in vivo, 360 h, time 15 day
HepG2 [21] = test: Antiproliferative activity against human HepG2 cells assessed as cell growth inhibition at 0.1 to 100 micromol/L measured after 24 hrs by MTT assay relative to control; assay type: functional, cell-based; details: dose 0.1-100 µmol/L
HeLa [22] = test: Induction of apoptosis in human HeLa cells assessed as viable cells at 30 uM incubated for 48 hrs by Annexin V/PI double staining base flow cytometry analysis (reference value: 82.3 %); assay type: functional; details: read-out: Activity
[23] = Toxicity in human HeLa cells xenografted in BALB/c nude assessed as histological changes in tumor at 5 mg/kg, iv administered every 3 days for 15 days by H and E staining based microscopic analysis; assay type: organism-based; details: in vivo, 360 h, time 15 day
[24] = Prodrug activation in human HeLa cells assessed as increase in fluorescence at 10 uM within 6 hrs by confocal laser scanning microscopic method; assay type: cell-based
HeLa [25] = test: Induction of apoptosis in human HeLa cells assessed as necrotic cells at 30 uM incubated for 48 hrs by Annexin V/PI double staining base flow cytometry analysis (reference value: 2.65 %); assay type: functional
[26] = Toxicity in BALB/c nude mouse xenografted with human HeLa cells assessed as histological changes in kidney at 5 mg/kg, iv administered every 3 days for 15 days by H and E staining based microscopic analysis; assay type: organism-based; details: in vivo, 360 h, time 15 day
MCF7 [27] = test: Antiproliferative activity against human MCF7 cells assessed as cell growth inhibition at 0.1 to 100 micromol/L measured after 24 hrs by MTT assay relative to control; assay type: functional, cell-based; details: dose 0.1-100 µmol/L
HeLa [28] = test: Induction of apoptosis in human HeLa cells assessed as late apoptotic cells at 30 uM incubated for 48 hrs by Annexin V/PI double staining base flow cytometry analysis (reference value: 12.5 %); assay type: functional
HeLa [29] = test: Antiproliferative activity against human HeLa cells assessed as cell growth inhibition at 0.1 to 100 micromol/L measured after 24 hrs by MTT assay relative to control; assay type: cell-based; details: dose 0.1-100 µmol/L
[30] = Drug uptake in tumor of BALB/c nude mouse xenografted with human HeLa cells 10 uM, iv measured after 24 hrs by fluorescence imaging based IVIS optical imaging analysis; assay type: ADME, organism-based, Neoplasm; details: in vivo
HeLa [31] = test: Induction of apoptosis in human HeLa cells assessed as late apoptotic cells at 30 uM incubated for 24 hrs by Annexin V/PI double staining base flow cytometry analysis (reference value: 12.5 %); assay type: functional

With COc1ccc(OC(=O)CCCSSCCCC(=O)O[C@@H](C(=O)O[C@H]2C[C@@]3(O)[C@@H](OC(=O)c4ccccc4)[C@@H]4[C@]5(OC(C)=O)CO[C@@H]5C[C@H](O)[C@@]4(C)C(=O)[C@H](OC(C)=O)C(=C2C)C3(C)C)[C@@H](NC(=O)c2ccccc2)c2ccccc2)c(-c2nc3ccccc3s2)c1 the Drug metabolism [1] was “Metabolite_Detected”, the Activity (HeLa [2]) was 3.59% and the Activity (HeLa [3]) was 6.79%. For the same compound, the viability at 30 µM (HeLa [4]) was 60.9%, the Activity (HeLa [5]) was 14.4% and the Activity (MCF7 [6]) was “Active”. The Drug uptake [7] was “Active”, the Drug metabolism [8] was “Metabolite_Detected” and the Activity [9] was “Non-Toxic”. For the same compound, the Activity [10] was “Non-Toxic”, the Activity (HEK-293T [11]) was “Toxic” and the Activity (HepG2 [12]) was “Active”. The Drug metabolism [13] was “Metabolite_Detected”, the Activity (HeLa [14]) was “Active” and the Drug metabolism [15] was “Metabolite_Detected”. The Activity (HeLa [16]) was “Active”, the Activity [17] was “Non-Toxic” and the Activity (HEK-293T [18]) was “Active”. The Drug metabolism [19] was “Metabolite_Detected”, the Activity [20] was “Non-Toxic” and the Activity (HepG2 [21]) was “Active”. For the same compound, the viability at 30 µM (HeLa [22]) was 8.39%, the Activity [23] was “Non-Toxic” and the Drug metabolism [24] was “Metabolite_Detected”. The Activity (HeLa [25]) was 4.86%, the Activity [26] was “Non-Toxic” and the Activity (MCF7 [27]) was “Active”. The Activity (HeLa [28]) was 72.4%, the Activity (HeLa [29]) was “Toxic” and the Drug uptake [30] was “Active”. For the same compound, the Activity (HeLa [31]) was 28.7%.
With CC(=O)O[C@H]1C(=O)[C@@]2(C)[C@H]([C@H](OC(=O)c3ccccc3)[C@]3(O)C[C@H](OC(=O)[C@H](O)[C@@H](NC(=O)c4ccccc4)c4ccccc4)C(C)=C1C3(C)C)[C@]1(OC(C)=O)CO[C@@H]1C[C@@H]2O [PACLITAXEL] the Activity (HeLa [2]) was 2.24%, the Activity (HeLa [3]) was 10.6% and the viability at 30 µM (HeLa [4]) was 52.4%. The Activity (HeLa [5]) was 4.55%, the Activity (HeLa [16]) was “Active” and the Activity [17] was “Non-Toxic”. It also gave a viability at 30 µM (HeLa [22]) of 26.7%, an Activity (HeLa [25]) of 2.12% and an Activity (HeLa [28]) of 66.6%. It also gave an Activity (HeLa [31]) of 34.7%.
